Experimental data from ChEMBL document CHEMBL1132099, “The design of potent and selective inhibitors of thrombin utilizing a piperazinedione template: part 2” (Bioorg Med Chem Lett, 1999).

Tests used:
[1] = target: T1, Prothrombin (Homo sapiens, UniProt P00734); assay: Inhibitory concentration required against thrombin was determined
[2] = target: T2, Serine protease 1 (Homo sapiens, UniProt P07477); assay: Inhibitory concentration required against trypsin was determined
[3] = target: T2, Serine protease 1; assay: Compound was tested for percent inhibition against trypsin at 100 uM
[4] = target: T1, Prothrombin; assay: Inhibition of thrombin
[5] = test system: Trypsin; assay: Compound was tested for percent inhibition against trypsin at 100 uM

T2 sequence (P07477 whole entry): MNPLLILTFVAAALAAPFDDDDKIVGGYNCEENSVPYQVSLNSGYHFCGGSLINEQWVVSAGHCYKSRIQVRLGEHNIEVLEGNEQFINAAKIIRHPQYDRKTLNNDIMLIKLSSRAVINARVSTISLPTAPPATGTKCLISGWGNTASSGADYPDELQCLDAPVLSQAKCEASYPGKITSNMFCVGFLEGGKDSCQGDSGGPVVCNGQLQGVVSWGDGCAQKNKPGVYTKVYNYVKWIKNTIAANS

| Compound | IC50 [1] | IC50 [2] | inhibition [3] | Ki [4] | inhibition [5] |
| --- | --- | --- | --- | --- | --- |
| N=C(N)NCCC[C@H](NC(=O)CN1C(=O)CN(CCCc2ccccc2)C(=O)[C@H]1Cc1ccccc1)C(=O)c1nccs1 | 3400 nM | 0.096 µM |  |  |  |
| N=C(N)N1CCCC(C[C@H](NC(=O)CN2C(=O)CN(CCCc3ccccc3)C(=O)[C@H]2Cc2ccc(Cl)cc2)C(=O)c2nccs2)C1 (some centres not stated) | 280 nM | 17 µM |  |  |  |
| CC(C)c1ccc(CCCN2CC(=O)N(CC(=O)N[C@@H](CC3CCCN(C(=N)N)C3)C(=O)c3nccs3)[C@H](Cc3ccccc3)C2=O)cc1 (some centres not stated) | 370 nM | 7 µM |  |  |  |
| N=C(N)N1CCCC(C[C@H](NC(=O)CN2C(=O)CN(CCCc3ccccc3)C(=O)[C@H]2Cc2ccccc2)C(=O)N2CCCCC2)C1 (some centres not stated) | 6600 nM |  | 52% | 825 nM |  |
| N=C(N)N1CCCC(C[C@H](NC(=O)CN2C(=O)CN(Cc3ccccc3)C(=O)[C@H]2Cc2ccccc2)C(=O)c2nccs2)C1 (some centres not stated) | 1230 nM | 21 µM |  |  |  |
| C[C@@H]1C(=O)N(CCCc2ccccc2)CC(=O)N1CC(=O)N[C@@H](C[C@@H]1CCCN(C(=N)N)C1)C(=O)c1nccs1 | 880 nM | 0.34 µM |  |  |  |
| N=C(N)NCCC[C@H](NC(=O)CN1C(=O)CN(CCCc2ccccc2)C(=O)[C@H]1Cc1ccccc1)C(=O)O |  |  | 20% |  | 20% |
| N=C(N)N1CCCC(C[C@H](NC(=O)CN2C(=O)CN(CCCc3ccc(Cl)c(Cl)c3)C(=O)[C@H]2Cc2ccccc2)C(=O)c2nccs2)C1 (some centres not stated) | 250 nM | 7.2 µM |  |  |  |
| CNC(=O)[C@H](CC1CCCN(C(=N)N)C1)NC(=O)CN1C(=O)CN(CCCc2ccccc2)C(=O)[C@H]1Cc1ccccc1 (some centres not stated) | 440 nM | 2.3 µM |  | 55 nM |  |
| CCCCN1CC(=O)N(CC(=O)N[C@@H](CC2CCCN(C(=N)N)C2)C(=O)c2nccs2)[C@H](Cc2ccccc2)C1=O (some centres not stated) | 340 nM | 15 µM |  | 32 nM |  |
| N=C(N)N1CCCC(C[C@H](NC(=O)CN2C(=O)CN(CCCc3ccc(O)cc3)C(=O)[C@H]2Cc2ccccc2)C(=O)c2nccs2)C1 (some centres not stated) | 240 nM | 25 µM |  |  |  |
| N=C(N)N1CCCC(C[C@H](NC(=O)CN2C(=O)CN(CCCc3ccccc3)C(=O)[C@H]2C(c2ccccc2)c2ccccc2)C(=O)c2nccs2)C1 (some centres not stated) | 350 nM | 8.5 µM |  |  |  |
| N=C(N)N1CCCC(C[C@H](NC(=O)CN2C(=O)CN(CCCc3ccccc3)C(=O)[C@H]2Cc2ccccc2)C(=O)N2CCCC2)C1 (some centres not stated) | 660 nM | 8.7 µM |  | 130 nM |  |
| N=C(N)N1CCCC(C[C@H](NC(=O)CN2C(=O)CN(CCCc3ccccc3)C(=O)[C@H]2Cc2cccc(Cl)c2)C(=O)c2nccs2)C1 (some centres not stated) | 390 nM | 4.8 µM |  | 20 nM |  |
| N=C(N)NCCC[C@H](NC(=O)CN1C(=O)CN(CCCc2ccccc2)C(=O)[C@H]1Cc1ccccc1)C(N)=O |  |  | 15% |  | 35% |
| N=C(N)N1CCCC(C[C@H](NC(=O)CN2C(=O)CN(CCc3ccccc3)C(=O)[C@H]2Cc2ccccc2)C(=O)c2nccs2)C1 (some centres not stated) | 990 nM | 45 µM |  |  |  |

Continued, values first:

| IC50 [1] | IC50 [2] | inhibition [3] | Ki [4] | inhibition [5] | Compound |
| --- | --- | --- | --- | --- | --- |
| 210 nM | 4.1 µM |  |  |  | Cc1ccc(CCCN2CC(=O)N(CC(=O)N[C@@H](CC3CCCN(C(=N)N)C3)C(=O)c3nccs3)[C@H](Cc3ccccc3)C2=O)cc1 (some centres not stated) |
| 210 nM | 9.1 µM |  |  |  | N=C(N)N1CCCC(C[C@H](NC(=O)CN2C(=O)CN(CCCc3ccc([N+](=O)[O-])cc3)C(=O)[C@H]2Cc2ccccc2)C(=O)c2nccs2)C1 (some centres not stated) |
| 150 nM | 3.7 µM |  | 80 nM |  | N=C(N)N1CCCC(C[C@H](NC(=O)CN2C(=O)CN(CCCc3ccccc3)C(=O)[C@H]2Cc2ccccc2)C(=O)c2nc3ccccc3s2)C1 (some centres not stated) |
| 160 nM | 18.2 µM |  | 55 nM |  | N=C(N)N1CCCC(C[C@H](NC(=O)CN2C(=O)CN(CCCc3ccccc3)C(=O)[C@H]2Cc2ccc3ccccc3c2)C(=O)c2nccs2)C1 (some centres not stated) |
| 170 nM |  |  | 3.5 nM |  | N=C(N)N1CCCC(C[C@H](NC(=O)CN2C(=O)CN(Cc3ccccc3)C(=O)[C@@H]2Cc2ccc3ccccc3c2)C(=O)c2nccs2)C1 (some centres not stated) |
| 80 nM | 7.8 µM |  | 8 nM |  | N=C(N)N1CCCC(C[C@H](NC(=O)CN2C(=O)CN(CCCc3ccccc3)C(=O)[C@H]2Cc2ccc(Cl)c(Cl)c2)C(=O)c2nccs2)C1 (some centres not stated) |
| 18 nM | 9.7 µM |  | 1.2 nM |  | N=C(N)N1CCCC(C[C@H](NC(=O)CN2C(=O)CN(CCCc3ccccc3)C(=O)[C@H]2Cc2ccccc2Cl)C(=O)c2nccs2)C1 (some centres not stated) |
| 170 nM | 9.1 µM |  | 55 nM |  | N=C(N)N1CCC[C@@H](C[C@H](NC(=O)CN2C(=O)CN(CCCc3ccccc3)C(=O)[C@H]2Cc2ccccc2)C(=O)c2nccs2)C1 |
| 160 nM | 14 µM |  |  |  | COc1ccc(CCCN2CC(=O)N(CC(=O)N[C@@H](CC3CCCN(C(=N)N)C3)C(=O)c3nccs3)[C@H](Cc3ccccc3)C2=O)cc1 (some centres not stated) |
| 110 nM | 4.8 µM |  |  |  | N=C(N)N1CCCC(C[C@H](NC(=O)CN2C(=O)CN(CCCc3ccc(Cl)cc3)C(=O)[C@H]2Cc2ccccc2)C(=O)c2nccs2)C1 (some centres not stated) |
